From patent US5334589A, “Quinolone carboxylic acid--metal ion--acid complexes” (Abbott Laboratories, priority 1992, dated 1994)
Read-outs that look alike come from different tables or passages of the source. Blank lines part the entries; values can stand above or below the compound they belong to.

Experiments:
[1] = system: rat tail vein; experiment: Vein irritation in rats (rat tail vein model); details: 100 mg/kg/day i.v., normal saline; for Normalized Rank: 5=normal
Experimental: Three studies were conducted: In Study I, four rats per group were given test compositions for three consecutive days at a concentration of 4 mg/ml (this and other concentrations expressed in terms of equivalent weight of temafloxacin base); in Study II, three rats per group were given test compositions for five consecutive days at 6 mg/ml; and in Study III, two groups of three rats each were given test compositions for five consecutive days at 4 mg/ml and 8 mg/ml, respectively. All rats were dosed at 100 mg/kg/day, with an infusion rate of 0.3 ml/minute.
Each rat was observed twice after each infusion: Once after 1-to-2 hours following injection, and again after 24 hours. Discoloration was ranked as follows:
4=Single red/pink spot of discoloration
3=Multiple red/pink spots of discoloration
2=Single purple spot of discoloration
1=Multiple purple spots of discoloration
0=Approx. one-fourth of distal tail discolored purple
Aggregate rankings were totaled for each group over the course of each study.

[2] = Solubility; type: physicochemical

Compound: CC1CN(c2cc3c(cc2F)c(=O)c(C(=O)O)cn3-c2ccc(F)cc2F)CCN1 (stereo not drawn) [Control A]
Normalized Rank ([1]; Study I, 4 mg/ml, three consecutive days, group total / number of animals / number of measurements, 0=worst): 2.29
Total Rank ([1]; Study I, 4 rats, 4 mg/ml, three consecutive days, discoloration rank 5=normal to 0=one-fourth of distal tail purple): 55

Compound: CC1CN(c2cc3c(cc2F)c(=O)c(C(=O)O)cn3-c2ccc(F)cc2F)CCN1 (stereo not drawn) [Control B]
Normalized Rank ([1]; Study II, 6 mg/ml, five consecutive days, 0=worst): 3.23
Total Rank ([1]; Study II, 3 rats, 6 mg/ml, five consecutive days, rank 5=normal, 0=worst): 97

solubility ([2]; about pH 4 to about pH 10, read-out: solubility): < 500 µg/mL
solubility ([2]; temafloxacin base in water, read-out: solubility in water): < 500 µg/mL
Compound: CC1CN(c2cc3c(cc2F)c(=O)c(C(=O)O)cn3-c2ccc(F)cc2F)CCN1 (stereo not drawn) [temafloxacin, 1-(2,4-difluorophenyl)-6-fluoro-1,4-dihydro-7-(3-methyl-l-piperazinyl)-4-oxo-3-quinoline carboxylic acid]
